From patent publication EP0522502A1, “Inhibitors of sucrase activity from tea” (MITSUI NORIN CO., LTD., priority 1991, dated 1993)

Legend:
[1] = target: T1, Sucrase (Rattus norvegicus, UniProt P23739); test: Sucrase activity inhibition (Dahlquist enzyme preparation, Bernfeld sugar determination); format: biochemical, Wistar rats; details: for Inhibition (%): final concentration of 5x10⁻⁴ M, substrate 60mM sucrose solution, 37 °C for 15 minutes, control (distilled water) = 100% activity; for sucrase activity inhibiting capacity: verbal summary of Table 1, 5x10⁻⁴ M
T1 construct: Sucrase was prepared from the mucous membrane of the small intestines of Wistar rats; from tissue; host or cells: mucous membrane of the small intestine of Wistar rats
Experimental: The value thus measured was converted into the amount of decomposed sucrose, and the reaction speed was calculated using a standard method. The reaction speed of the control case (where distilled water was added instead of the sample solution) was also obtained in the same manner. Sucrase activity in the control case was calculated to be 100%. The percentage inhibition of the samples, each at a final concentration of 5x10⁻⁴ M, were obtained.

[2] = tested on: male ICR mice; test: Acute toxicity test (LD50 by Van der Waerden method); format: in vivo; details: intraabdominal administration
Experimental: An acute toxicity test of the sucrase activity inhibitor of the present invention was carried out using male ICR mice. LD₅₀ was calculated by the Van der Waerden method.

T1 sequence (P23739 whole entry): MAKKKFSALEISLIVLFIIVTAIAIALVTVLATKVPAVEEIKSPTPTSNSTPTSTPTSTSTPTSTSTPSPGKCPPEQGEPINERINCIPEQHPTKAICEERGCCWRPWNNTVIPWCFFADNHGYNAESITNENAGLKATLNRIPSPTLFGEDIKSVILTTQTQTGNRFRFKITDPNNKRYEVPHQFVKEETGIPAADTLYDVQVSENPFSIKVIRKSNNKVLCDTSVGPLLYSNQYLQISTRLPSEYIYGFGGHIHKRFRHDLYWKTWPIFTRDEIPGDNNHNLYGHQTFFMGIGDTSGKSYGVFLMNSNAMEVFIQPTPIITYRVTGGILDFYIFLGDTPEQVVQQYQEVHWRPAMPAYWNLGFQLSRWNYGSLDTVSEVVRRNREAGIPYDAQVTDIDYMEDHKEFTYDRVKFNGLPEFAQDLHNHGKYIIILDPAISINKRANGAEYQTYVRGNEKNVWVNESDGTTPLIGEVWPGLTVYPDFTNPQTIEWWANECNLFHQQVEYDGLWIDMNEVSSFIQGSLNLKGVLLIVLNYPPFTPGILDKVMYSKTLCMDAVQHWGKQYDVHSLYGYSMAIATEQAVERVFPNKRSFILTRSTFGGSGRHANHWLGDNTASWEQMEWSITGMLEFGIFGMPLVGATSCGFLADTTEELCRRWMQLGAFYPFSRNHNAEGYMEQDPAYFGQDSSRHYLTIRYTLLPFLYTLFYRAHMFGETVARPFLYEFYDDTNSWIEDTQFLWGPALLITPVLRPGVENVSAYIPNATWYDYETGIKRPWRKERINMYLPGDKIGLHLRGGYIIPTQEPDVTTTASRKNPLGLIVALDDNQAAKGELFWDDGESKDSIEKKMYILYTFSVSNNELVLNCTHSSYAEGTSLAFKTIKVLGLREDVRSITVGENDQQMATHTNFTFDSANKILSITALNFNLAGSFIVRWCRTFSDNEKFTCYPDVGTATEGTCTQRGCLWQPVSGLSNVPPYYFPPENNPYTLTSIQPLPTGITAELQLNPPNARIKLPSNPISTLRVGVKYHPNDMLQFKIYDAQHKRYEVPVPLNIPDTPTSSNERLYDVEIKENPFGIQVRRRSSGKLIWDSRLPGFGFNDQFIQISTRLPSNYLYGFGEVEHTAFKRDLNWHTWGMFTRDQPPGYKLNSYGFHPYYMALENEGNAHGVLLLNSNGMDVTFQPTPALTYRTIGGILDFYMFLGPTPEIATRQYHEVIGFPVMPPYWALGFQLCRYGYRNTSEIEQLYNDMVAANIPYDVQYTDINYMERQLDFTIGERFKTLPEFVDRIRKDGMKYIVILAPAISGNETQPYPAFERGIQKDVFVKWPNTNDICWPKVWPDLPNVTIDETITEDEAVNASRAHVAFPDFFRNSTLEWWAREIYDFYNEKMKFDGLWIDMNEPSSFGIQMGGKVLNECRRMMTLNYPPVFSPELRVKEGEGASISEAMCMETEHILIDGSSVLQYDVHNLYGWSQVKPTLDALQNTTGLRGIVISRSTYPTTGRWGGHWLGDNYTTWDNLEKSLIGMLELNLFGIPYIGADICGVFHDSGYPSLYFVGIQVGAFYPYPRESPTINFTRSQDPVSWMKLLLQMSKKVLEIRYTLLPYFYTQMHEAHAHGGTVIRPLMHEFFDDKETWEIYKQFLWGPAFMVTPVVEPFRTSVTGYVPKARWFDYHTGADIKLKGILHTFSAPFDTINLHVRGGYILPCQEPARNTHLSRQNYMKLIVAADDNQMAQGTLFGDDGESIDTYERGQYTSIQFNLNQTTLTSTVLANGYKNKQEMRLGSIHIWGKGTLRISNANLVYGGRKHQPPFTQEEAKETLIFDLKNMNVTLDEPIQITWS

| SMILES | Inhibition (%) [1] | sucrase activity inhibiting capacity [1] | LD₅₀(reliable limit) [2] |
| --- | --- | --- | --- |
| Oc1cc(O)c2c(c1)O[C@H](c1ccc(O)c(O)c1)[C@@H](O)C2 [(+)Catechin, reference compound] | 13.7% | – | – |
| O=C(O[C@@H]1Cc2c(O)cc(O)cc2O[C@@H]1c1ccc(O)c(O)c1)c1cc(O)c(O)c(O)c1 [Epicatechin Gallate, (-) Epicatechin Gallate] | 62.5% | – | – |
| Oc1cc(O)c2c(c1)O[C@H](c1ccc(O)c(O)c1)[C@H](O)C2 [Epicatechin, (-) Epicatechin] | 14.7% | only slight | – |
| O=C(O[C@@H]1Cc2c(O)cc(O)cc2O[C@@H]1c1cc(O)c(O)c(O)c1)c1cc(O)c(O)c(O)c1 [Epigallocatechin Gallate, (-) Epigallocatechin Gallate] | 78.8% | – | 150 mg/kg |
| Oc1cc(O)c2c(c1)O[C@H](c1cc(O)c(O)c(O)c1)[C@H](O)C2 [Epigallocatechin, (-) Epigallocatechin] | 17.3% | only slight | – |
| O=c1c(O)cc([C@H]2Oc3cc(O)cc(O)c3C[C@H]2O)cc2c([C@H]3Oc4cc(O)cc(O)c4C[C@H]3O)cc(O)c(O)c12 [Free Theaflavin] | 6.8% | only slight | – |

More lines, main results first:

| Inhibition (%) [1] | sucrase activity inhibiting capacity [1] | SMILES | LD₅₀(reliable limit) [2] |
| --- | --- | --- | --- |
| 6.7% | – | O=C(O)c1cc(O)c(O)c(O)c1 [Gallic Acid, reference compound] | – |
| 95.9% | – | O=C(O[C@@H]1Cc2c(O)cc(O)cc2O[C@@H]1c1cc(O)c(=O)c2c(O)c(O)cc([C@H]3Oc4cc(O)cc(O)c4C[C@H]3OC(=O)c3cc(O)c(O)c(O)c3)c2c1)c1cc(O)c(O)c(O)c1 [Theaflavin Digallate] | – |
| 45.9% | – | O=C(O[C@@H]1Cc2c(O)cc(O)cc2O[C@@H]1c1cc(O)c(=O)c2c(O)c(O)cc([C@H]3Oc4cc(O)cc(O)c4C[C@H]3O)c2c1)c1cc(O)c(O)c(O)c1 [Theaflavin Monogallate A] | – |
| 59.5% | – | O=C(O[C@@H]1Cc2c(O)cc(O)cc2O[C@@H]1c1cc(O)c(O)c2c(=O)c(O)cc([C@H]3Oc4cc(O)cc(O)c4C[C@H]3O)cc12)c1cc(O)c(O)c(O)c1 [Theaflavin Monogallate B] | – |
